Measured values as given in the supplement of paper PMC10307832.

How the values were obtained:
Test in all cases: relative viability (nuclei count vs DMSO), 5 days (fraction); higher = more cells survive
COR-L 105 = test system: COR-L 105
How it was run: (§1)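 Each reported value is a median over duplicate plates. It expresses relative viability: treated-well nuclei count divided by vehicle-well nuclei count. Lung cancer cell lines in 1536-well plates were dosed by pin tool a day after seeding, alone with one drug or with a fixed anchor-drug dose plus five library-drug doses (not always all listed) in √10 steps, and nuclei were counted after 5 days.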

HCC-78 = test system: HCC-78
How it was run: as §1

LCLC-103H = test system: LCLC-103H
How it was run: as §1

NCI-H2085 = test system: NCI-H2085
How it was run: as §1

HCC-15 = test system: HCC-15
How it was run: as §1

EPLC-272H = test system: EPLC-272H
How it was run: as §1

NCI-H358 = test system: NCI-H358
How it was run: as §1

COR-L23 = test system: COR-L23
How it was run: as §1

NCI-H1944 = test system: NCI-H1944
How it was run: as §1

NCI-H2405 = test system: NCI-H2405
How it was run: as §1

NCI-H1437 = test system: NCI-H1437
How it was run: as §1

HARA = test system: HARA
How it was run: as §1

HCC-366 = test system: HCC-366
How it was run: as §1

SK-LU-1 = test system: SK-LU-1
How it was run: as §1

NCI-H1975 = test system: NCI-H1975
How it was run: as §1

NCI-H1395 = test system: NCI-H1395
How it was run: as §1

HCC-44 = test system: HCC-44
How it was run: as §1

UMC-11 = test system: UMC-11
How it was run: as §1

NCI-H1792 = test system: NCI-H1792
How it was run: as §1

NCI-H2023 = test system: NCI-H2023
How it was run: as §1

NCI-H661 = test system: NCI-H661
How it was run: as §1

HCC-827 = test system: HCC-827
How it was run: as §1

Question: What does the source list for `O=c1[nH]c2ccccc2n1C1CCN(CCCC(c2ccc(F)cc2)c2ccc(F)cc2)CC1` [Pimozide] + Nc1nc2[nH]cc(CCc3ccc(C(=O)N[C@@H](CCC(=O)O)C(=O)O)cc3)c2c(=O)[nH]1 [Pemetrexed] (partner 0.2 µM)?
Answer: relative viability (COR-L 105; first compound 0.08 µM): 0.963; relative viability (COR-L 105; first compound 0.253 µM): 1.11; relative viability (COR-L 105; first compound 0.8 µM): 1.07; relative viability (COR-L 105; first compound 2.53 µM): 1.2; relative viability (COR-L 105; first compound 8 µM): 0.954; relative viability (HCC-78; first compound 0.08 µM): 0.911; relative viability (HCC-78; first compound 0.8 µM): 0.91; relative viability (HCC-78; first compound 2.53 µM): 0.872; relative viability (HCC-78; first compound 8 µM): 0.87; relative viability (LCLC-103H; first compound 0.08 µM): 0.435; relative viability (LCLC-103H; first compound 0.253 µM): 0.425; relative viability (LCLC-103H; first compound 0.8 µM): 0.471; relative viability (LCLC-103H; first compound 2.53 µM): 0.385; relative viability (LCLC-103H; first compound 8 µM): 0.468; relative viability (NCI-H2085; first compound 0.08 µM): 0.812; relative viability (NCI-H2085; first compound 0.253 µM): 1.01; relative viability (NCI-H2085; first compound 0.8 µM): 0.745; relative viability (NCI-H2085; first compound 2.53 µM): 0.938; relative viability (NCI-H2085; first compound 8 µM): 0.735; relative viability (HCC-15; first compound 0.08 µM): 0.229; relative viability (HCC-15; first compound 0.253 µM): 0.226; relative viability (HCC-15; first compound 0.8 µM): 0.221; relative viability (HCC-15; first compound 2.53 µM): 0.213; relative viability (HCC-15; first compound 8 µM): 0.205; relative viability (EPLC-272H; first compound 0.08 µM): 0.319; relative viability (EPLC-272H; first compound 0.253 µM): 0.285; relative viability (EPLC-272H; first compound 0.8 µM): 0.271; relative viability (EPLC-272H; first compound 2.53 µM): 0.179; relative viability (EPLC-272H; first compound 8 µM): 0.238; relative viability (NCI-H358; first compound 0.08 µM): 0.171; relative viability (NCI-H358; first compound 0.253 µM): 0.178; relative viability (NCI-H358; first compound 0.8 µM): 0.159; relative viability (NCI-H358; first compound 2.53 µM): 0.172; relative viability (NCI-H358; first compound 8 µM): 0.147; relative viability (COR-L23; first compound 0.08 µM): 0.2; relative viability (COR-L23; first compound 0.253 µM): 0.192; relative viability (COR-L23; first compound 0.8 µM): 0.19; relative viability (COR-L23; first compound 2.53 µM): 0.192; relative viability (COR-L23; first compound 8 µM): 0.192; relative viability (NCI-H1944; first compound 0.08 µM): 0.68; relative viability (NCI-H1944; first compound 2.53 µM): 0.466; relative viability (NCI-H1944; first compound 8 µM): 0.512; relative viability (NCI-H2405; first compound 0.08 µM): 0.968; relative viability (NCI-H2405; first compound 0.253 µM): 1.09; relative viability (NCI-H2405; first compound 0.8 µM): 1.05; relative viability (NCI-H2405; first compound 2.53 µM): 0.989; relative viability (NCI-H2405; first compound 8 µM): 0.88; relative viability (NCI-H1437; first compound 0.08 µM): 0.354; relative viability (NCI-H1437; first compound 0.253 µM): 0.306; relative viability (NCI-H1437; first compound 0.8 µM): 0.274; relative viability (NCI-H1437; first compound 2.53 µM): 0.312; relative viability (NCI-H1437; first compound 8 µM): 0.219; relative viability (HARA; first compound 0.08 µM): 0.245; relative viability (HARA; first compound 0.253 µM): 0.262; relative viability (HARA; first compound 0.8 µM): 0.241; relative viability (HARA; first compound 2.53 µM): 0.282; relative viability (HARA; first compound 8 µM): 0.198; relative viability (HCC-366; first compound 0.08 µM): 0.166; relative viability (HCC-366; first compound 0.253 µM): 0.173; relative viability (HCC-366; first compound 0.8 µM): 0.12; relative viability (HCC-366; first compound 2.53 µM): 0.152; relative viability (HCC-366; first compound 8 µM): 0.189; relative viability (SK-LU-1; first compound 0.08 µM): 1.05; relative viability (SK-LU-1; first compound 0.253 µM): 0.991; relative viability (SK-LU-1; first compound 0.8 µM): 0.897; relative viability (SK-LU-1; first compound 2.53 µM): 0.853; relative viability (SK-LU-1; first compound 8 µM): 0.817; relative viability (NCI-H1975; first compound 0.08 µM): 0.309; relative viability (NCI-H1975; first compound 0.253 µM): 0.261; relative viability (NCI-H1975; first compound 0.8 µM): 0.305; relative viability (NCI-H1975; first compound 2.53 µM): 0.28; relative viability (NCI-H1975; first compound 8 µM): 0.283; relative viability (NCI-H1395; first compound 0.08 µM): 0.887; relative viability (NCI-H1395; first compound 0.253 µM): 0.825; relative viability (NCI-H1395; first compound 0.8 µM): 0.822; relative viability (NCI-H1395; first compound 2.53 µM): 0.823; relative viability (NCI-H1395; first compound 8 µM): 0.831; relative viability (HCC-44; first compound 0.08 µM): 0.67; relative viability (HCC-44; first compound 0.253 µM): 0.666; relative viability (HCC-44; first compound 0.8 µM): 0.577; relative viability (HCC-44; first compound 2.53 µM): 0.618; relative viability (HCC-44; first compound 8 µM): 0.577; relative viability (UMC-11; first compound 0.08 µM): 0.82; relative viability (UMC-11; first compound 0.253 µM): 0.681; relative viability (UMC-11; first compound 0.8 µM): 0.748; relative viability (UMC-11; first compound 2.53 µM): 0.772; relative viability (UMC-11; first compound 8 µM): 0.725; relative viability (NCI-H1792; first compound 0.08 µM): 0.822; relative viability (NCI-H1792; first compound 0.253 µM): 0.786; relative viability (NCI-H1792; first compound 0.8 µM): 0.43; relative viability (NCI-H1792; first compound 2.53 µM): 0.727; relative viability (NCI-H1792; first compound 8 µM): 0.356; relative viability (NCI-H2023; first compound 0.08 µM): 0.215; relative viability (NCI-H2023; first compound 0.253 µM): 0.231; relative viability (NCI-H2023; first compound 0.8 µM): 0.226; relative viability (NCI-H2023; first compound 2.53 µM): 0.179; relative viability (NCI-H2023; first compound 8 µM): 0.164; relative viability (NCI-H661; first compound 0.08 µM): 0.914; relative viability (NCI-H661; first compound 0.253 µM): 0.898; relative viability (NCI-H661; first compound 0.8 µM): 0.844; relative viability (NCI-H661; first compound 2.53 µM): 0.877; relative viability (NCI-H661; first compound 8 µM): 0.797; relative viability (HCC-827; first compound 0.253 µM): 0.228; relative viability (HCC-827; first compound 0.8 µM): 0.258; relative viability (HCC-827; first compound 2.53 µM): 0.289; relative viability (HCC-827; first compound 8 µM): 0.254
